Experimental findings from US20260022142A1, “MACROCYCLIC IMMUNOMODULATORS” (Bristol-Myers Squibb Company, priority 2022, published 2026) are described below.

Bridge positions count the residues as written; N and C are the ends. Square brackets hold non-standard residues; d marks the D form. Peptide text beside a SMILES is read from it. * marks the point of attachment. Phe(3-CF3) = N[C@@H](Cc1cccc(C(F)(F)F)c1)C(=O)O; Phe(4-COOH) = N[C@@H](Cc1ccc(C(=O)O)cc1)C(=O)O; Bip = N[C@@H](Cc1ccc(-c2ccccc2)cc1)C(=O)O; NH(CH2)14COOH = O=C(O)CCCCCCCCCCCCCCN*; NH(CH2)12COOH = O=C(O)CCCCCCCCCCCCN*; Val(3-OH) = CC(C)(O)[C@H](N)C(=O)O; Cha = N[C@@H](CC1CCCCC1)C(=O)O; PEG4 = NCCOCCOCCOCCOCCC(=O)O; Carboxymethyl = O=C(O)C*; Orn = NCCC[C@H](N)C(=O)O; Dab = NCC[C@H](N)C(=O)O; Nva = CCC[C@H](N)C(=O)O

For the test, the target named is T1, PD-1/PD-L1 interaction (PE-labeled human PD-L1-Ig binding to Jurkat cell line over-expressing human PD-1) (Homo sapiens, UniProt Q15116).
T1 construct: expressed in transfected cells; host or cells: Jurkat
T1 sequence (Q15116 25-288): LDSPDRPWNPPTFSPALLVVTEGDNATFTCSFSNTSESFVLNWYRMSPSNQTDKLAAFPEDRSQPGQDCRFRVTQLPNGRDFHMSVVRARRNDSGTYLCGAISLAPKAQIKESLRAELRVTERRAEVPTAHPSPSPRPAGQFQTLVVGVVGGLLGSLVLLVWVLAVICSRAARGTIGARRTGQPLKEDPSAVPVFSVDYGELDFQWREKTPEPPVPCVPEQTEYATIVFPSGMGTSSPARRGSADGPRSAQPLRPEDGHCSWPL
Briefly: Jurkat-PD-1 Cell Binding High-Content Screening Assay (CBA). The class given is cell-based. The conditions noted are these: Jurkat cell line over-expressing human PD-1; PE-labeled PD-L1-Ig 20 nM final; read-out: Jurkat hPD1-PDL1 IC50. A digest of the protocol:
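Human PD-L1-Ig carrying a covalent PE label on its Ig tag serves as the probe, applied at 20 nM final to compound-treated (2 h, 37° C) Jurkat-hPD-1 cells in medium with 10% fetal calf serum. After one hour, fixation and nuclear staining precede high-content image analysis.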
`COC[C@@H]1NC(=O)CSC[C@@H](C(=O)N[C@@H](CCN)C(=O)NCCOCCOCCOCCOCCC(=O)NCCCCCCCCCCCCC(=O)O)NC(=O)[C@H](CO)NC(=O)[C@H](C(C)(C)O)NC(=O)[C@H](CC2CCCCC2)NC(=O)[C@H](CCN)NC(=O)[C@@H](CC(C)C)NC(=O)[C@H](CCCN)NC(=O)[C@H](Cc2ccc(C(=O)O)cc2)NC(=O)[C@H](Cc2ccc(-c3ccccc3)cc2)NC(=O)[C@H](Cc2ccc(C(=O)O)cc2)NC(=O)[C@H](Cc2cccc(C(F)(F)F)c2)NC(=O)[C@H](CC(=O)O)NC(=O)[C@H](Cc2ccc(OCC(=O)O)cc2)NC1=O` [Compound 2905] ({CH2CO}-S(Me)Y(Carboxymethyl)D[Phe(3-CF3)][Phe(4-COOH)][Bip][Phe(4-COOH)][Orn][dL][Dab][Cha][Val(3-OH)]SC[Dab][PEG4]-{NH(CH2)12COOH}; thioether N-14): the IC50 (usually the concentration at which inhibition is half-maximal) stood at 70.6 nM.

For `CCC[C@@H]1NC(=O)CSC[C@@H](C(=O)N[C@@H](CCN)C(=O)NCCOCCOCCOCCOCCC(=O)NCCCCCCCCCCCCCCC(=O)O)NC(=O)[C@H](CO)NC(=O)[C@H](C(C)(C)O)NC(=O)[C@H](CC2CCCCC2)NC(=O)[C@H](CCN)NC(=O)[C@@H](CC(C)C)NC(=O)[C@H](CCCN)NC(=O)[C@H](Cc2ccc(C(=O)O)cc2)NC(=O)[C@H](Cc2ccc(-c3ccccc3)cc2)NC(=O)[C@H](Cc2ccc(C(=O)O)cc2)NC(=O)[C@H](Cc2cccc(C(F)(F)F)c2)NC(=O)[C@H](CC(=O)O)NC(=O)[C@H](Cc2ccc(OCC(=O)O)cc2)NC1=O` [Compound 2906] ({CH2CO}-[Nva]Y(Carboxymethyl)D[Phe(3-CF3)][Phe(4-COOH)][Bip][Phe(4-COOH)][Orn][dL][Dab][Cha][Val(3-OH)]SC[Dab][PEG4]-{NH(CH2)14COOH}; thioether N-14), the IC50 was determined as 97.7 nM.

For the compound `COC[C@@H]1NC(=O)CSC[C@@H](C(=O)N[C@@H](CCN)C(=O)NCCCCCCCCCCCCC(=O)O)NC(=O)[C@H](CO)NC(=O)[C@H](C(C)(C)O)NC(=O)[C@H](CC2CCCCC2)NC(=O)[C@H](CCN)NC(=O)[C@@H](CC(C)C)NC(=O)[C@H](CCCN)NC(=O)[C@H](Cc2ccc(C(=O)O)cc2)NC(=O)[C@H](Cc2ccc(-c3ccccc3)cc2)NC(=O)[C@H](Cc2ccc(C(=O)O)cc2)NC(=O)[C@H](Cc2cccc(C(F)(F)F)c2)NC(=O)[C@H](CC(=O)O)NC(=O)[C@H](Cc2ccc(OCC(=O)O)cc2)NC1=O` [Compound 2907] ({CH2CO}-S(Me)Y(Carboxymethyl)D[Phe(3-CF3)][Phe(4-COOH)][Bip][Phe(4-COOH)][Orn][dL][Dab][Cha][Val(3-OH)]SC[Dab]-{NH(CH2)12COOH}; thioether N-14), the IC50 came to 41.8 nM.

In the case of `COC[C@@H]1NC(=O)CSC[C@@H](C(=O)N[C@@H](CCN)C(=O)NCCCCCCCCCCCCCCC(=O)O)NC(=O)[C@H](CO)NC(=O)[C@H](C(C)(C)O)NC(=O)[C@H](CC2CCCCC2)NC(=O)[C@H](CCN)NC(=O)[C@@H](CC(C)C)NC(=O)[C@H](CCCN)NC(=O)[C@H](Cc2ccc(C(=O)O)cc2)NC(=O)[C@H](Cc2ccc(-c3ccccc3)cc2)NC(=O)[C@H](Cc2ccc(C(=O)O)cc2)NC(=O)[C@H](Cc2cccc(C(F)(F)F)c2)NC(=O)[C@H](CC(=O)O)NC(=O)[C@H](Cc2ccc(OCC(=O)O)cc2)NC1=O` [Compound 2908] ({CH2CO}-S(Me)Y(Carboxymethyl)D[Phe(3-CF3)][Phe(4-COOH)][Bip][Phe(4-COOH)][Orn][dL][Dab][Cha][Val(3-OH)]SC[Dab]-{NH(CH2)14COOH}; thioether N-14), the IC50 was 541 nM.
